Experimental data as given in patent EP0438519B1, “THERAPEUTIC PEPTIDES” (The Administrators of The Tulane Educational Fund, priority 1988, dated 1998).

System: bombesin-stimulated amylase secretion
Experiment: Bombesin-stimulated pancreatic amylase secretion in the rat
Type: in vivo

D-Phe^6BN(6-13)methylester [I00008]
duration of inhibition of the secretion of amylase (5 nM of the analog, stimulated by 0.5 nM of bombesin, after bolus injection): 150 min
effect on bombesin-stimulated amylase secretion (result in words (Fig. 3)): potent antagonist
